Data taken from patent publication US6379676B2, “Enhancing immune response in animals” (priority 1999, dated 2002).

Test system: E. coli
Protocol: The term “resistant to contamination by pathogenic bacteria” means that a challenge with 1000 colony forming units (CFU) per gram of feed results in the death of substantially all the bacteria within 24 to 72 hours. In particular, the term “resistance to contamination by Salmonella or E. coli” means that a challenge with 1000 CFUs of Salmonella or E. coli per gram of feed results in 1 CFU or less per 25 grams of feed after 24 hours incubation at 25° C.
One set of samples was treated with a coarse spray (270 microns) at 1.8 gal/hr. (6.81 liters/hr.) and another was treated with fine mist (43 microns) at 25.5 gal/hr. (96.5 liters/hr.). Each sample of 500 grams was challenged with 20 ml of a liquid inoculum of Escherishia coli (>10^6 CFU/ml) one week after treatment.

## C=O [formaldehyde]
2 lbs. (0.91 kg) dry wt. per metric ton, 2.0% CV, 1000 CFUs/gram of feed
  time finished feed resists contamination by E. coli: about 60 days
4 lbs. (1.81 kg) dry wt. per metric ton of finished feed, 7% CV, 1000 CFU/gram of feed
  resistance as measured by challenge with E. coli: about 30 days
